What all share (test): In vitro antifungal activity, microbroth dilution MIC
What all share (format): cell-based
What all share (settings): RPMI-1640, 35° C., 4 to 48 hours, no growth observed
In general terms: Broth dilution looks for growth in wells or tubes with falling amounts of substance.

In experiment [1] the test system is Cryptococcus neoformans A. 34144. The procedure, abridged: (§1)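 Broth microdilution adapted from NCCLS M27, in RPMI-1640 with 0.165 M MOPS, pH 7.0. Yeast or mould inoculum at 2×10^3 CFU/ml was mixed 1:1 with DMSO-derived compound solutions (200 to 0.10 μg/ml before mixing) and incubated at 35 °C for 4 to 48 h. MIC was the concentration showing no growth.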
The subject of experiment [2] is Torulopsis glabrata B. 16205. The procedure, abridged:
as §1

Experiment [3] deals with Candida albicans C1-2. The procedure, abridged:
as §1

Experiment [4] concerns Trichophyton mentagrophytes A. 9129. The method in brief: as §1
Experiment [5] deals with Cryptococcus neoformans B. 42419. The procedure, abridged:
as §1

In experiment [6] the test system is Candida parapsitosis A. 7330. The method in brief: as §1
For experiment [7], the system named is Candida albicans IFO. 1385. The method in brief: as §1
For experiment [8], the system named is Candida tropicalis A. 13803. The procedure, abridged: as §1
Experiment [9] deals with Candida krusei K. 11655. The procedure, abridged: as §1
The test system of experiment [10] is Trichophyton mentagrophytes B. 32663. The method in brief:
as §1

The subject of experiment [11] is Aspergillus furnigatus B. 19119. The method in brief:
as §1

The subject of experiment [12] is Aspergillus niger A. 16404. The procedure, abridged:
as §1

For experiment [13], the system named is Candida pseudotropicalis K. 11658. The method in brief: as §1
For experiment [14], the system named is Cryptococcus neoformans IFM. 40092. The procedure, abridged: as §1
The subject of experiment [15] is Candida albicans A. 10231. The method in brief: as §1

With `COc1ccc(C=C(F)Oc2ccc(OCC3COC(Cn4ccnc4)(c4ccc(F)cc4F)O3)cc2)cc1` (mixture of isomers) [Ex. 105], the “Minimal inhibitory concentration(MIC), Cry. neoformans A. 34144” value in experiment [1] amounted to 6.25 µg/mL. For the same compound, in experiment [2], the “Minimal inhibitory concentration(MIC), T. glabrata B. 16205” value was over 100 µg/mL. Further, the “Minimal inhibitory concentration(MIC), C. albicans C1-2” value in [3] is 100 µg/mL. For the same compound, in [4], the “Minimal inhibitory concentration(MIC), T. mentagrophytes A. 9129” value was 100 µg/mL. For the same compound, the “Minimal inhibitory concentration(MIC), Cry. neoformans B. 42419” value in experiment [5] turned out to be 12.5 µg/mL. The “Minimal inhibitory concentration(MIC), C. parapsitosis A. 7330” value in experiment [6] was over 100 µg/mL. Besides, the “Minimal inhibitory concentration(MIC), C. albicans IFO. 1385” value in experiment [7] was found to be 6.25 µg/mL. Also, the “Minimal inhibitory concentration(MIC), C. tropicalis A. 13803” value in experiment [8] was over 100 µg/mL. Besides, the “Minimal inhibitory concentration(MIC), C. krusei K. 11655” value in experiment [9] was over 100 µg/mL. For the same compound, the “Minimal inhibitory concentration(MIC), T. mentagrophytes B. 32663” value in experiment [10] turned out to be 100 µg/mL. In experiment [11], the “Minimal inhibitory concentration(MIC), A furnigatus B. 19119” value is over 100 µg/mL. In experiment [12], the “Minimal inhibitory concentration(MIC), A. niger A. 16404” value is over 100 µg/mL. Moreover, the “Minimal inhibitory concentration(MIC), C. pseudotropicalis K. 11658” value in experiment [13] is over 100 µg/mL. Also, the “Minimal inhibitory concentration(MIC), Cry. neoformans IFM. 40092” value in experiment [14] is 1.56 µg/mL. The “Minimal inhibitory concentration(MIC), C. albicans A. 10231” value in experiment [15] came out at 50.0 µg/mL.

In the case of `FC(Oc1ccc(OCC2COC(Cn3ccnc3)(c3ccc(F)cc3F)O2)cc1)=C(c1ccccc1)C(F)(F)F` (mixture of isomers) [Ex. 106], the “Minimal inhibitory concentration(MIC), Cry. neoformans A. 34144” value in [1] stood at 1.56 µg/mL. In addition, the “Minimal inhibitory concentration(MIC), T. glabrata B. 16205” value in experiment [2] is 50.0 µg/mL. Besides, in [3], the “Minimal inhibitory concentration(MIC), C. albicans C1-2” value worked out at 50.0 µg/mL. Also, in [4], the “Minimal inhibitory concentration(MIC), T. mentagrophytes A. 9129” value is 3.13 µg/mL. Further, the “Minimal inhibitory concentration(MIC), Cry. neoformans B. 42419” value in [5] amounted to 1.56 µg/mL. In addition, the “Minimal inhibitory concentration(MIC), C. parapsitosis A. 7330” value in [6] amounted to 3.13 µg/mL. In addition, the “Minimal inhibitory concentration(MIC), C. albicans IFO. 1385” value in experiment [7] came to 1.56 µg/mL. For the same compound, the “Minimal inhibitory concentration(MIC), C. tropicalis A. 13803” value in experiment [8] was over 100 µg/mL. For the same compound, the “Minimal inhibitory concentration(MIC), C. krusei K. 11655” value in experiment [9] amounted to 3.13 µg/mL. In addition, the “Minimal inhibitory concentration(MIC), T. mentagrophytes B. 32663” value in [10] amounted to 1.56 µg/mL. Also, the “Minimal inhibitory concentration(MIC), A furnigatus B. 19119” value in [11] is over 100 µg/mL. The “Minimal inhibitory concentration(MIC), A. niger A. 16404” value in experiment [12] is over 100 µg/mL. Further, the “Minimal inhibitory concentration(MIC), C. pseudotropicalis K. 11658” value in experiment [13] was found to be 3.13 µg/mL. The “Minimal inhibitory concentration(MIC), Cry. neoformans IFM. 40092” value in [14] is 0.39 µg/mL. Also, the “Minimal inhibitory concentration(MIC), C. albicans A. 10231” value in [15] turned out to be 100 µg/mL.

For the compound `Cc1cccc(C(=C(F)Oc2ccc(OCC3COC(Cn4ccnc4)(c4ccc(F)cc4F)O3)cc2)C(F)(F)F)c1` (mixture of isomers) [Ex. 107], the “Minimal inhibitory concentration(MIC), Cry. neoformans A. 34144” value in [1] stood at 1.56 µg/mL. Also, the “Minimal inhibitory concentration(MIC), T. glabrata B. 16205” value in experiment [2] stood at 100 µg/mL. For the same compound, the “Minimal inhibitory concentration(MIC), C. albicans C1-2” value in experiment [3] was determined as 50.0 µg/mL. Further, the “Minimal inhibitory concentration(MIC), T. mentagrophytes A. 9129” value in experiment [4] is 12.5 µg/mL. Also, the “Minimal inhibitory concentration(MIC), Cry. neoformans B. 42419” value in experiment [5] was found to be 3.13 µg/mL. Further, in [6], the “Minimal inhibitory concentration(MIC), C. parapsitosis A. 7330” value was over 100 µg/mL. Further, in experiment [7], the “Minimal inhibitory concentration(MIC), C. albicans IFO. 1385” value stood at 3.13 µg/mL. Moreover, in experiment [8], the “Minimal inhibitory concentration(MIC), C. tropicalis A. 13803” value is over 100 µg/mL. Moreover, the “Minimal inhibitory concentration(MIC), C. krusei K. 11655” value in experiment [9] was over 100 µg/mL. Also, in experiment [10], the “Minimal inhibitory concentration(MIC), T. mentagrophytes B. 32663” value was determined as 3.13 µg/mL. For the same compound, the “Minimal inhibitory concentration(MIC), A furnigatus B. 19119” value in experiment [11] was over 100 µg/mL. In experiment [12], the “Minimal inhibitory concentration(MIC), A. niger A. 16404” value was over 100 µg/mL. Moreover, the “Minimal inhibitory concentration(MIC), C. pseudotropicalis K. 11658” value in experiment [13] is 100 µg/mL. In addition, in experiment [14], the “Minimal inhibitory concentration(MIC), Cry. neoformans IFM. 40092” value came out at 0.39 µg/mL. In experiment [15], the “Minimal inhibitory concentration(MIC), C. albicans A. 10231” value worked out at 100 µg/mL.

Take `CCc1ccc(C(=C(F)Oc2ccc(OCC3COC(Cn4ccnc4)(c4ccc(F)cc4F)O3)cc2)C(F)(F)F)cc1` (mixture of isomers) [Ex. 108]: the “Minimal inhibitory concentration(MIC), Cry. neoformans A. 34144” value in experiment [1] was 3.13 µg/mL. In addition, the “Minimal inhibitory concentration(MIC), T. glabrata B. 16205” value in experiment [2] is over 100 µg/mL. Besides, the “Minimal inhibitory concentration(MIC), C. albicans C1-2” value in experiment [3] was determined as 100 µg/mL. In addition, in experiment [4], the “Minimal inhibitory concentration(MIC), T. mentagrophytes A. 9129” value came to 50.0 µg/mL. Moreover, the “Minimal inhibitory concentration(MIC), Cry. neoformans B. 42419” value in experiment [5] turned out to be 3.13 µg/mL. Also, the “Minimal inhibitory concentration(MIC), C. parapsitosis A. 7330” value in [6] was over 100 µg/mL. The “Minimal inhibitory concentration(MIC), C. albicans IFO. 1385” value in experiment [7] turned out to be 6.25 µg/mL. Besides, in experiment [8], the “Minimal inhibitory concentration(MIC), C. tropicalis A. 13803” value is over 100 µg/mL. Further, the “Minimal inhibitory concentration(MIC), C. krusei K. 11655” value in experiment [9] was over 100 µg/mL. Also, the “Minimal inhibitory concentration(MIC), T. mentagrophytes B. 32663” value in [10] was determined as 12.5 µg/mL. Further, in experiment [11], the “Minimal inhibitory concentration(MIC), A furnigatus B. 19119” value is over 100 µg/mL. In experiment [12], the “Minimal inhibitory concentration(MIC), A. niger A. 16404” value is over 100 µg/mL. Further, the “Minimal inhibitory concentration(MIC), C. pseudotropicalis K. 11658” value in [13] is over 100 µg/mL. The “Minimal inhibitory concentration(MIC), Cry. neoformans IFM. 40092” value in experiment [14] came out at 0.78 µg/mL. Moreover, the “Minimal inhibitory concentration(MIC), C. albicans A. 10231” value in experiment [15] was over 100 µg/mL.

For the compound `CC(C)(C)c1ccc(C(=C(F)Oc2ccc(OCC3COC(Cn4ccnc4)(c4ccc(F)cc4F)O3)cc2)C(F)(F)F)cc1` (mixture of isomers) [Ex. 109], in experiment [1], the “Minimal inhibitory concentration(MIC), Cry. neoformans A. 34144” value worked out at 1.56 µg/mL. In addition, the “Minimal inhibitory concentration(MIC), T. glabrata B. 16205” value in [2] was 100 µg/mL. In addition, the “Minimal inhibitory concentration(MIC), C. albicans C1-2” value in experiment [3] was 50.0 µg/mL. Further, in experiment [4], the “Minimal inhibitory concentration(MIC), T. mentagrophytes A. 9129” value stood at 6.25 µg/mL. Further, in experiment [5], the “Minimal inhibitory concentration(MIC), Cry. neoformans B. 42419” value is 3.13 µg/mL. Besides, the “Minimal inhibitory concentration(MIC), C. parapsitosis A. 7330” value in experiment [6] was over 100 µg/mL. Besides, the “Minimal inhibitory concentration(MIC), C. albicans IFO. 1385” value in experiment [7] came out at 3.13 µg/mL. Moreover, the “Minimal inhibitory concentration(MIC), C. tropicalis A. 13803” value in experiment [8] is over 100 µg/mL. The “Minimal inhibitory concentration(MIC), C. krusei K. 11655” value in experiment [9] is over 100 µg/mL. Further, in experiment [10], the “Minimal inhibitory concentration(MIC), T. mentagrophytes B. 32663” value came to 3.13 µg/mL. Moreover, the “Minimal inhibitory concentration(MIC), A furnigatus B. 19119” value in [11] was over 100 µg/mL. For the same compound, the “Minimal inhibitory concentration(MIC), A. niger A. 16404” value in [12] was over 100 µg/mL. For the same compound, the “Minimal inhibitory concentration(MIC), C. pseudotropicalis K. 11658” value in experiment [13] is over 100 µg/mL. In addition, in [14], the “Minimal inhibitory concentration(MIC), Cry. neoformans IFM. 40092” value turned out to be 0.39 µg/mL. The “Minimal inhibitory concentration(MIC), C. albicans A. 10231” value in experiment [15] amounted to 100 µg/mL.

Regarding `Cc1ccc(C(=C(F)Oc2ccc(OCC3COC(Cn4ccnc4)(c4ccc(F)cc4F)O3)cc2)C(F)(F)F)cc1C` (mixture of isomers) [Ex. 110], the “Minimal inhibitory concentration(MIC), Cry. neoformans A. 34144” value in experiment [1] stood at 1.56 µg/mL. Moreover, in experiment [2], the “Minimal inhibitory concentration(MIC), T. glabrata B. 16205” value came to 100 µg/mL. Also, the “Minimal inhibitory concentration(MIC), C. albicans C1-2” value in [3] turned out to be 50.0 µg/mL. Moreover, the “Minimal inhibitory concentration(MIC), T. mentagrophytes A. 9129” value in [4] was 6.25 µg/mL. Moreover, the “Minimal inhibitory concentration(MIC), Cry. neoformans B. 42419” value in [5] was determined as 3.13 µg/mL. Moreover, the “Minimal inhibitory concentration(MIC), C. parapsitosis A. 7330” value in experiment [6] is over 100 µg/mL. For the same compound, the “Minimal inhibitory concentration(MIC), C. albicans IFO. 1385” value in [7] is 3.13 µg/mL. Besides, the “Minimal inhibitory concentration(MIC), C. tropicalis A. 13803” value in [8] was over 100 µg/mL. The “Minimal inhibitory concentration(MIC), C. krusei K. 11655” value in experiment [9] is over 100 µg/mL. Also, the “Minimal inhibitory concentration(MIC), T. mentagrophytes B. 32663” value in [10] was 3.13 µg/mL. For the same compound, the “Minimal inhibitory concentration(MIC), A furnigatus B. 19119” value in experiment [11] was over 100 µg/mL. The “Minimal inhibitory concentration(MIC), A. niger A. 16404” value in experiment [12] was over 100 µg/mL. The “Minimal inhibitory concentration(MIC), C. pseudotropicalis K. 11658” value in experiment [13] was over 100 µg/mL. Also, the “Minimal inhibitory concentration(MIC), Cry. neoformans IFM. 40092” value in experiment [14] worked out at 0.39 µg/mL. In addition, in experiment [15], the “Minimal inhibitory concentration(MIC), C. albicans A. 10231” value came out at 100 µg/mL.

The record behind these values is patent US6376497B1, “Antifungal azole derivatives having a fluorinated vinyl group and process for preparing same” (Korea Research Institute of Chemical Technology, priority 1999, dated 2002).
